ChEMBL document CHEMBL1125524, “Adenosine A1 antagonists. 2. Structure-activity relationships on diuretic activities and protective effects against acute renal failure” (J Med Chem, 1992)

Columns and labels:
Rattus norvegicus [1] = experiment: Serum creatinine concentration measured after intraperitoneal administration of 1 mg/kg of compound to rats(vehicle 4.70+/-0.17); format: functional
Rattus norvegicus [2] = experiment: Effect on urinary excretion potassium and sodium after oral administration of 25 mg/kg to rats(potassium and sodium excretion in control rat is 0.186+/-0.020); format: functional, Urine
Rattus norvegicus [3] = experiment: Percent inhibition of serum creatinine by the compound given as ratio of Cr value in treated to vehicle treated ones after intraperitoneal administration of 1 mg/kg of compound to rats(vehicle 4.70+/-0.17); format: functional; details: ip
Rattus norvegicus [4] = experiment: Ratio of urinary excretion value (urinary volume) in treated rats to that in control rats, at a peroral dose of 1.6 mg/Kg; format: functional, Urine
Rattus norvegicus [5] = experiment: Ratio of urinary excretion value (urinary volume) in treated rats to that in control rats, at a peroral dose of 25 mg/Kg; format: functional, Urine
Rattus norvegicus [6] = experiment: Urea nitrogen concentration measured after intraperitoneal administration of 1 mg/kg of compound to rats(vehicle 154.2+/-5.0); format: functional
Rattus norvegicus [7] = experiment: Ratio of sodium ion/potassium ion concentration in treated rats to that in control rats, at a peroral dose of 1.6 mg/Kg; format: functional
Rattus norvegicus [8] = experiment: Ratio of sodium ion/potassium ion concentration in treated rats to that in control rats, at a peroral dose of 25 mg/Kg; format: functional
Rattus norvegicus [9] = experiment: Ratio of urinary excretion value (Na+ concentration) in treated rats to that in control rats, at a peroral dose of 1.6 mg/Kg; format: functional, Urine
Rattus norvegicus [10] = experiment: Ratio of urinary excretion value (Na+ concentration) in treated rats to that in control rats, at a peroral dose of 25 mg/Kg; format: functional, Urine
Rattus norvegicus [11] = experiment: Ratio of urinary excretion value (Na+ concentration) in treated rats to that in control rats, at a peroral dose of 6.25 mg/Kg; format: functional, Urine
Rattus norvegicus [12] = experiment: Effect on urinary excretion potassium and sodium after oral administration of 1.6 mg/kg to rats(potassium and sodium excretion in control rat is 0.173+/-0.015); format: functional, Urine
Rattus norvegicus [13] = experiment: Oral diuretic activity was measured after oral administration of 1.6 mg/kg to rats(control volume is 0.93+/-0.03); format: functional, Urine
Rattus norvegicus [14] = experiment: Oral diuretic activity was measured after oral administration of 25 mg/kg to rats(control volume is 0.91+/-0.04); format: functional, Urine
Rattus norvegicus [15] = experiment: Percent inhibition of Urea nitrogen by the compound given as ratio of UN value in treated to vehicle treated ones after intraperitoneal administration of 1 mg/kg of compound to rats(vehicle 154.2+/-5.0); format: functional; details: ip
Rattus norvegicus [16] = experiment: Ratio of urinary excretion value (urinary volume) in treated rats to that in control rats, at a peroral dose of 6.25 mg/Kg; format: functional, Urine
Adenosine receptor A1 [17] = target: T1, Adenosine receptor A1 (Rattus norvegicus, UniProt P25099)
T1 sequence (P25099 whole entry): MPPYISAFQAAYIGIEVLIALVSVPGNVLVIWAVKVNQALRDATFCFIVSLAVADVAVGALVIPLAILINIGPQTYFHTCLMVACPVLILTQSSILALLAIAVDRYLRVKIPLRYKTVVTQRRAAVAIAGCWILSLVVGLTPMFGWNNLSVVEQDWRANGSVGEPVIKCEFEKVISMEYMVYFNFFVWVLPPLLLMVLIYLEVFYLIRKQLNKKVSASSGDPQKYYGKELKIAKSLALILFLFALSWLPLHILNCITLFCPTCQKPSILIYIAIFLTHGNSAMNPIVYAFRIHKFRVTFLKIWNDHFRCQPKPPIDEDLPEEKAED
Description: Binding affinity towards adenosine A1 receptor in rat cortical membranes using N6-[3H]cyclohexyladenosine as radioligand

Adenosine receptor A1 [18] = target: T2, Adenosine receptor A1 (Cavia porcellus, UniProt P47745)
T2 sequence (P47745 whole entry): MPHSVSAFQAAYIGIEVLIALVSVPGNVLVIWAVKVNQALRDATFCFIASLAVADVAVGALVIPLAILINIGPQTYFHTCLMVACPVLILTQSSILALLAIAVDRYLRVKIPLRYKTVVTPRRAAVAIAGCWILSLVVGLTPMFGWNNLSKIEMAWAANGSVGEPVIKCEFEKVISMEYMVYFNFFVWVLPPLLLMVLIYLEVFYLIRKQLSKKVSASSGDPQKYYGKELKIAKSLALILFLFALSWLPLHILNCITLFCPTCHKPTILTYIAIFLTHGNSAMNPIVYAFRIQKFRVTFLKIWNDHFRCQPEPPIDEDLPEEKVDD
Description: Binding affinity against adenosine A1 receptor in guinea pig forebrain membranes using N6-[3H]cyclohexyladenosine as radioligand

Adenosine A2 receptor [19] = target: T3, Adenosine A2 receptor (Rattus norvegicus, UniProt P29276+P30543)
Description: Binding affinity towards adenosine A2 receptor in rat striatal membranes using N-[3H]-ethyladenosin-5''-uronamide as radioligand

Adenosine A2 receptor [20] = target: T3, Adenosine A2 receptor; remark: listed apart in the source
Rattus norvegicus [21] = experiment: Serum creatinine concentration measured after intraperitoneal administration of 1 mg/kg of compound to rats(vehicle 3.62+/-0.52); format: functional
Rattus norvegicus [22] = experiment: Serum creatinine concentration measured after intraperitoneal administration of 10 mg/kg of compound to rats(vehicle 3.93+/-0.45); format: functional
Rattus norvegicus [23] = experiment: Effect on urinary excretion potassium and sodium after oral administration of 0.4 mg/kg to rats(potassium and sodium excretion in control rat is 0.191+/-0.020); format: functional, Urine
Rattus norvegicus [24] = experiment: Percent inhibition of serum creatinine by the compound given as ratio of Cr value in treated to vehicle treated ones after intraperitoneal administration of 10 mg/kg of compound to rats(vehicle 3.93+/-0.45); format: functional; details: ip
Rattus norvegicus [25] = experiment: Ratio of urinary excretion value (urinary volume) in treated rats to that in control rats, at a peroral dose of 0.1 mg/Kg; format: functional, Urine
Rattus norvegicus [26] = experiment: Ratio of urinary excretion value (urinary volume) in treated rats to that in control rats, at a peroral dose of 0.4 mg/Kg; format: functional, Urine
Rattus norvegicus [27] = experiment: Percent inhibition of serum creatinine by the compound given as ratio of Cr value in treated to vehicle treated ones after intraperitoneal administration of 1 mg/kg of compound to rats(vehicle 3.62+/-0.52); format: functional; details: ip
Rattus norvegicus [28] = experiment: Oral diuretic activity was measured after oral administration of 0.1 mg/kg to rats(control volume is 1.15+/-0.12); format: functional, Urine
Rattus norvegicus [29] = experiment: Ratio of sodium ion/potassium ion concentration in treated rats to that in control rats, at a peroral dose of 0.1 mg/Kg; format: functional
Rattus norvegicus [30] = experiment: Ratio of sodium ion/potassium ion concentration in treated rats to that in control rats, at a peroral dose of 0.4 mg/Kg; format: functional
Rattus norvegicus [31] = experiment: Ratio of urinary excretion value (Na+ concentration) in treated rats to that in control rats, at a peroral dose of 0.1 mg/Kg; format: functional, Urine
Rattus norvegicus [32] = experiment: Ratio of urinary excretion value (Na+ concentration) in treated rats to that in control rats, at a peroral dose of 0.4 mg/Kg; format: functional, Urine
Rattus norvegicus [33] = experiment: Urea nitrogen concentration measured after intraperitoneal administration of 1 mg/kg of compound to rats(vehicle 105.2+/-14.9); format: functional
Rattus norvegicus [34] = experiment: Oral diuretic activity was measured after oral administration of 0.4 mg/kg to rats(control volume is 1.15+/-0.17); format: functional, Urine
Rattus norvegicus [35] = experiment: Oral diuretic activity was measured after oral administration of 1.6 mg/kg to rats(control volume is 0.96+/-0.09); format: functional, Urine
Rattus norvegicus [36] = experiment: Urea nitrogen concentration measured after intraperitoneal administration of 10 mg/kg of compound to rats(vehicle 129.1+/-14.5); format: functional
Rattus norvegicus [37] = experiment: Percent inhibition of Urea nitrogen by the compound given as ratio of UN value in treated to vehicle treated ones after intraperitoneal administration of 1 mg/kg of compound to rats(vehicle 105.2+/-14.9); format: functional; details: ip
Rattus norvegicus [38] = experiment: Percent inhibition of Urea nitrogen by the compound given as ratio of UN value in treated to vehicle treated ones after intraperitoneal administration of 10 mg/kg of compound to rats(vehicle 129.1+/-14.5); format: functional; details: ip
Rattus norvegicus [39] = experiment: Effect on urinary excretion potassium and sodium after oral administration of 1.6 mg/kg to rats(potassium and sodium excretion in control rat is 0.147+/-0.015); format: functional, Urine
Rattus norvegicus [40] = experiment: Effect on urinary excretion potassium and sodium after oral administration of 0.1 mg/kg to rats(potassium and sodium excretion in control rat is 0.133+/-0.022); format: functional, Urine
Rattus norvegicus [41] = experiment: Serum creatinine concentration measured after intraperitoneal administration of 1 mg/kg of compound to rats(vehicle 4.19+/-0.2); format: functional
Rattus norvegicus [42] = experiment: Serum creatinine concentration measured after intraperitoneal administration of 0.1 mg/kg of compound to rats(vehicle 2.9+/-0.28); format: functional
Rattus norvegicus [43] = experiment: Effect on urinary excretion potassium and sodium after oral administration of 1.5 mg/kg to rats(potassium and sodium excretion in control rat is 0.165+/-0.008); format: functional, Urine
Rattus norvegicus [44] = experiment: Oral diuretic activity was measured after oral administration of 25 mg/kg to rats(control volume is 0.74+/-0.05); format: functional, Urine
Rattus norvegicus [45] = experiment: Ratio of urinary excretion value (urinary volume) in treated rats to that in control rats, at a peroral dose of 1.5 mg/Kg; format: functional, Urine
Rattus norvegicus [46] = experiment: Urea nitrogen concentration measured after intraperitoneal administration of 1 mg/kg of compound to rats(vehicle 156.1+/-8.4); format: functional
Rattus norvegicus [47] = experiment: Ratio of sodium ion/potassium ion concentration in treated rats to that in control rats, at a peroral dose of 1.5 mg/Kg; format: functional
Rattus norvegicus [48] = experiment: Ratio of urinary excretion value (Na+ concentration) in treated rats to that in control rats, at a peroral dose of 1.5 mg/Kg; format: functional, Urine
Rattus norvegicus [49] = experiment: Effect on urinary excretion potassium and sodium after oral administration of 25 mg/kg to rats(potassium and sodium excretion in control rat is […]+/-[…]); format: functional, Urine
Rattus norvegicus [50] = experiment: Oral diuretic activity was measured after oral administration of 1.5 mg/kg to rats(control volume is 1.01+/-0.08); format: functional, Urine
Rattus norvegicus [51] = experiment: Urea nitrogen concentration measured after intraperitoneal administration of 0.1 mg/kg of compound to rats(vehicle 93.4+/-10); format: functional

FC(F)(F)c1nnc2c(NC3CCCC3)nc3ccc(Cl)cc3n12
Cr (Rattus norvegicus [1]): 2.58 mg/dL
Na (Rattus norvegicus [2]): 0.323 m equiv 6hr-1 100g-1
inhibition in vivo at 1 mg/kg (Rattus norvegicus [3]): 45%
T/C (Rattus norvegicus [4]): 1.15
T/C (Rattus norvegicus [5]): 1.91
UN (Rattus norvegicus [6]): 88.7 mg/dL
Na+/K+ (Rattus norvegicus [7]): 0.98
Na+/K+ (Rattus norvegicus [8]): 1.31
T/C (Rattus norvegicus [9]): 1.22
T/C (Rattus norvegicus [10]): 1.74
T/C (Rattus norvegicus [11]): 1.82
Na (Rattus norvegicus [12]): 0.212 m equiv 6hr-1 100g-1
Urine volume (Rattus norvegicus [13]): 1.07 ml 6hr-1 100g-1
Urine volume (Rattus norvegicus [14]): 1.74 ml 6hr-1 100g-1
inhibition in vivo at 1 mg/kg (Rattus norvegicus [15]): 42%
T/C (Rattus norvegicus [16]): 2.17
Ki (Adenosine receptor A1 [17]): 5.5 nM
Ki (Adenosine receptor A1 [18]): 36 nM
Ki (Adenosine A2 receptor [19]): 2100 nM
Ki (Adenosine A2 receptor [20]): 710 nM

CCn1c(=O)c2nc(C(C3CC3)C3CC3)[nH]c2n(CC)c1=O
Cr (Rattus norvegicus [21]): 3.24 mg/dL
Cr (Rattus norvegicus [22]): 1.74 mg/dL
Na (Rattus norvegicus [23]): 0.433 m equiv 6hr-1 100g-1
inhibition in vivo at 10 mg/kg (Rattus norvegicus [24]): 56%
T/C (Rattus norvegicus [25]): 0.72
T/C (Rattus norvegicus [26]): 1.84
T/C (Rattus norvegicus [4]): 1.71
inhibition in vivo at 1 mg/kg (Rattus norvegicus [27]): 10%
Urine volume (Rattus norvegicus [28]): 0.83 ml 6hr-1 100g-1
Na+/K+ (Rattus norvegicus [29]): 1.37
Na+/K+ (Rattus norvegicus [30]): 1.63
Na+/K+ (Rattus norvegicus [7]): 1.71
T/C (Rattus norvegicus [31]): 0.85
T/C (Rattus norvegicus [32]): 2.27
T/C (Rattus norvegicus [9]): 2.12
UN (Rattus norvegicus [33]): 98.5 mg/dL
Urine volume (Rattus norvegicus [34]): 2.11 ml 6hr-1 100g-1
Urine volume (Rattus norvegicus [35]): 1.72 ml 6hr-1 100g-1
UN (Rattus norvegicus [36]): 50.6 mg/dL
inhibition in vivo at 1 mg/kg (Rattus norvegicus [37]): 6%
inhibition in vivo at 10 mg/kg (Rattus norvegicus [38]): 61%
Na (Rattus norvegicus [39]): 0.312 m equiv 6hr-1 100g-1
Na (Rattus norvegicus [40]): 0.113 m equiv 6hr-1 100g-1
Ki (Adenosine A2 receptor [20]): 690 nM

CCCn1c(=O)[nH]c(=O)c2[nH]c(C(C3CC3)C3CC3)nc21
Cr (Rattus norvegicus [41]): 3 mg/dL
Cr (Rattus norvegicus [42]): 2.96 mg/dL
Na (Rattus norvegicus [43]): 0.202 m equiv 6hr-1 100g-1
Urine volume (Rattus norvegicus [44]): 1.85 ml 6hr-1 100g-1
T/C (Rattus norvegicus [45]): 1.12
T/C (Rattus norvegicus [5]): 2.5
UN (Rattus norvegicus [46]): 119.1 mg/dL
Na+/K+ (Rattus norvegicus [47]): 1.13
Na+/K+ (Rattus norvegicus [8]): 1.4
T/C (Rattus norvegicus [48]): 1.22
T/C (Rattus norvegicus [10]): 2.16
T/C (Rattus norvegicus [11]): 1.69
Na (Rattus norvegicus [49]): 0.328 m equiv 6hr-1 100g-1
Urine volume (Rattus norvegicus [50]): 1.13 ml 6hr-1 100g-1
UN (Rattus norvegicus [51]): 104.2 mg/dL
T/C (Rattus norvegicus [16]): 1.42
Ki (Adenosine A2 receptor [20]): > 100000 nM
